# PubChem BioAssay AID256 (DTP/NCI, 2004)
# Values joined by “and” are separate entries in the source; they are usually repeats but may differ in a detail not shown here. Equal entries are not always repeated. Inconclusive results and toxic doses are left out.
# Tested on: CD2F1 mice, L1210 leukemia ip, survival T/C
# Experiment: NCI In Vivo Anticancer Drug Screen. Data for tumor model L1210 Leukemia (intraperitoneal) in CD2F1 (CDF1) mice
# Conditions: higher = longer survival
# Outline: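 Tumor-bearing mice (transplanted tumor) were split into treated and vehicle control groups, and the measured endpoint of each treated group was divided by that of its vehicle controls.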
# [1] = endpoint: mean survival time, dose: 100.0 mg/kg/injection, schedule: Q01DX009 (ip), vehicle: saline with Tween-80
# [2] = endpoint: mean survival time, dose: 100.0 mg/kg/injection, schedule: Q04DX003 (ip), vehicle: saline with Tween-80
# [3] = endpoint: mean survival time, dose: 200.0 mg/kg/injection, schedule: Q01DX009 (ip), vehicle: saline with Tween-80
# [4] = endpoint: mean survival time, dose: 200.0 mg/kg/injection, schedule: Q04DX003 (ip), vehicle: saline with Tween-80
# [5] = endpoint: mean survival time, dose: 400.0 mg/kg/injection, schedule: Q01DX009 (ip), vehicle: saline with Tween-80
# [6] = endpoint: mean survival time, dose: 400.0 mg/kg/injection, schedule: Q04DX003 (ip), vehicle: saline with Tween-80
smiles,measurement,setting,value
CC(O)CC1CC(=O)CCC1=O (configuration not stated),T/C,"endpoint: mean survival time, dose: 100.0 mg/kg/injection, schedule: Q01DX001 (ip), vehicle: saline with Tween-80",98 % of control
same,T/C,"endpoint: mean survival time, dose: 200.0 mg/kg/injection, schedule: Q01DX001 (ip), vehicle: saline with Tween-80",103 % of control
same,T/C,"endpoint: mean survival time, dose: 400.0 mg/kg/injection, schedule: Q01DX001 (ip), vehicle: saline with Tween-80",95 % of control
O=C(O)CCn1c(=O)[nH]c(=O)n(CCC(=O)O)c1=O,T/C,[1],96 % of control
same,T/C,[2],113 % of control
same,T/C,[3],100 % of control
same,T/C,[4],101 % of control
same,T/C,[5],97 % of control
same,T/C,[6],98 % of control
Fc1c(F)c(F)c(OP2(Oc3c(F)c(F)c(F)c(F)c3F)=NP(Oc3c(F)c(F)c(F)c(F)c3F)(Oc3c(F)c(F)c(F)c(F)c3F)=NP(Oc3c(F)c(F)c(F)c(F)c3F)(Oc3c(F)c(F)c(F)c(F)c3F)=N2)c(F)c1F,T/C,[1],103 % of control
same,T/C,[2],98 % of control
same,T/C,[3],101 % of control
same,T/C,[4],95 % of control
same,T/C,[5],95 % of control
same,T/C,[6],98 % of control
CC(N)C(=O)NC1C(CO)OC(n2cnc3c(N)ncnc32)C1O (configuration not stated),T/C,"endpoint: mean survival time, dose: 100.0 mg/kg/injection, schedule: Q01DX001 (ip), vehicle: saline",100 % of control
same,T/C,"endpoint: mean survival time, dose: 200.0 mg/kg/injection, schedule: Q01DX001 (ip), vehicle: saline",97 % of control
same,T/C,"endpoint: mean survival time, dose: 400.0 mg/kg/injection, schedule: Q01DX001 (ip), vehicle: saline",100 % of control
CNC(=S)Nc1ccc(OC)c2ccccc12,T/C,"endpoint: mean survival time, dose: 100.0 mg/kg/injection, schedule: Q04DX003 (ip), vehicle: Klucel (hydroxypropylcellulose) (HPC)",86 % of control
same,T/C,"endpoint: mean survival time, dose: 200.0 mg/kg/injection, schedule: Q04DX003 (ip), vehicle: Klucel (hydroxypropylcellulose) (HPC)",88 % of control
same,T/C,"endpoint: mean survival time, dose: 400.0 mg/kg/injection, schedule: Q04DX003 (ip), vehicle: Klucel (hydroxypropylcellulose) (HPC)",89 % of control
[NH-]CC[NH-].[NH-]CC[NH-].[NH-]CC[NH-].[Ni+2].[O-][Cl+3]([O-])([O-])O,T/C,"endpoint: mean survival time, dose: 25.0 mg/kg/injection, schedule: Q04DX002 (ip), vehicle: saline with Tween-80",117 % of control
same,T/C,"endpoint: mean survival time, dose: 50.0 mg/kg/injection, schedule: Q04DX002 (ip), vehicle: saline with Tween-80",92 % of control
CN1CCN(c2ccc3nc(-c4ccc5nc(-c6ccc(O)cc6)[nH]c5c4)[nH]c3c2)CC1,T/C,"endpoint: mean survival time, dose: 6.25 mg/kg/injection, schedule: Q01DX009 (ip), vehicle: saline",124 % of control
same,T/C,"endpoint: mean survival time, dose: 12.5 mg/kg/injection, schedule: Q01DX009 (ip), vehicle: saline",124 % of control
same,T/C,"endpoint: mean survival time, dose: 25.0 mg/kg/injection, schedule: Q01DX009 (ip), vehicle: saline",183 % of control
same,T/C,"endpoint: mean survival time, dose: 50.0 mg/kg/injection, schedule: Q01DX009 (ip), vehicle: saline",238 % of control and 314 % of control
same,T/C,"endpoint: mean survival time, dose: 100.0 mg/kg/injection, schedule: Q01DX009 (ip), vehicle: saline",294 % of control
same,T/C,"endpoint: median survival time, dose: 6.25 mg/kg/injection, schedule: Q01DX009 (ip), vehicle: saline",124 % of control
same,T/C,"endpoint: median survival time, dose: 12.5 mg/kg/injection, schedule: Q01DX009 (ip), vehicle: saline",117 % of control and 120 % of control
same,T/C,"endpoint: median survival time, dose: 18.0 mg/kg/injection, schedule: Q01DX005 (ip), vehicle: saline",119 % of control
same,T/C,"endpoint: median survival time, dose: 18.0 mg/kg/injection, schedule: Q01DX005 (iv), vehicle: saline",116 % of control
same,T/C,"endpoint: median survival time, dose: 37.0 mg/kg/injection, schedule: Q01DX005 (iv), vehicle: saline",115 % of control
same,T/C,"endpoint: median survival time, dose: 50.0 mg/kg/injection, schedule: Q01DX005 (oral), vehicle: saline",101 % of control
same,T/C,"endpoint: median survival time, dose: 50.0 mg/kg/injection, schedule: Q01DX009 (ip), vehicle: saline",226 % of control and 344 % of control
same,T/C,"endpoint: median survival time, dose: 75.0 mg/kg/injection, schedule: Q01DX005 (ip), vehicle: saline",151 % of control
same,T/C,"endpoint: median survival time, dose: 100.0 mg/kg/injection, schedule: Q01DX005 (oral), vehicle: saline",96 % of control
same,T/C,"endpoint: median survival time, dose: 150.0 mg/kg/injection, schedule: Q01DX005 (ip), vehicle: saline",348 % of control
same,T/C,"endpoint: median survival time, dose: 200.0 mg/kg/injection, schedule: Q01DX005 (oral), vehicle: saline",94 % of control
same,T/C,"endpoint: median survival time, dose: 200.0 mg/kg/injection, schedule: Q01DX009 (ip), vehicle: saline",116 % of control and 91 % of control
same,T/C,"endpoint: median survival time, dose: 400.0 mg/kg/injection, schedule: Q01DX005 (oral), vehicle: saline",96 % of control
same,T/C,"endpoint: median survival time, dose: 800.0 mg/kg/injection, schedule: Q01DX005 (oral), vehicle: saline",94 % of control
